The target in assay [1] is glucosylceramide synthase (GCS) (Homo sapiens (Human), UniProt Q16739). Put plainly: Evaluation of inhibitory activities against GCS (enzyme reaction with A549 cell lysate, NBD C6-ceramide, HPLC fluorescence). The following applies: GCS activity in A549 cell lysate, 37° C. for 90 minutes. In kind it is biochemical. How it is done:
Ibiglustat, known as a GCS inhibitor, was used as a control.
After the cells attached to the culture dish were washed with phosphate buffered saline (PBS), the cells were scraped off with a cell scraper and then centrifuged (4000 rpm, 3 min, 4° C.) to collect the cells in a 50 ml tube. The cell pellets were suspended in a lysis buffer (50 mM HEPES, pH 7.3, containing 1× the protease/phosphatase inhibitor cocktail), lysed by sonication, and then the lysate was centrifuged (13000 rpm, 10 min, 4° C.). The obtained supernatant was used for the quantitative analysis of proteins. The amount of proteins was measured using the BCA protein assay kit, using bovine serum albumin as a standard.
Enzymatic reactions were initiated by sequentially adding the following reaction materials to a 96 deep-well plate. Thereafter, the enzymatic reactions were performed at 37° C. for 90 minutes.
The enzymatic reactions were stopped by adding 100 μl of chloroform/methanol (2:1, v/v). After vortexing for 15 seconds, each mixture was centrifuged (4000 rpm, 10 min, 18° C.). The lower layer (50 μl) was transferred to a new 96 deep-well plate and dried with a reduced concentrator.
Data analysis was performed by the following equations. % Area (Sample)=Area (GlcCer)/[Area (Cer)+Area (GlcCer)]×100 % GCS activity=[Area(Sample)−Area(ibiglustat)]/[Area(DMSO)−Area(ibiglustat)]×100

In assay [2] the test system is GM1 production. Nature of the assay: cells. In kind it is cell-based.

Like-named read-outs stand apart in the source and are kept apart here.

Broadly, the IC50 is the concentration that inhibits the measured activity by half.

glucosylceramide synthase (GCS), sequence (Q16739 whole entry, looked up): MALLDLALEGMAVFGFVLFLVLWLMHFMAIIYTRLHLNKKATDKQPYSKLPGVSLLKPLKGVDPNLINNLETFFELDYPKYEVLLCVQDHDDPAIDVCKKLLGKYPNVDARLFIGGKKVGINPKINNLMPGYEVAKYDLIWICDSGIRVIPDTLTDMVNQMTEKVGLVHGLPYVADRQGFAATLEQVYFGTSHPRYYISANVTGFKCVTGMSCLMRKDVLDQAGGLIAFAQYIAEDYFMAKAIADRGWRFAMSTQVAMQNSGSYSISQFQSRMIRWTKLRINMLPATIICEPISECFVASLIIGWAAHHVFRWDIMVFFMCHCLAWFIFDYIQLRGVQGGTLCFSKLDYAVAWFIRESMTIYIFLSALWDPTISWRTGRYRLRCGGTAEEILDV

For the molecule `COCOc1cccc(-c2ccc3c(c2)CCCC3NC(=O)O[C@@H]2CN3CCC2CC3)c1` (stereo partly drawn) [Example 28, (S)-quinuclidin-3-yl (6-(3-(methoxymethoxy)phenyl)-1,2,3,4-tetrahydronaphthalen-1-yl)carbamate], the half-maximal inhibitory concentration (IC50) came to 1.33 nM in assay [1] and 5.31 nM in assay [2] (Homo sapiens, Jurkat, 72 h).

As to `COCCOc1ccccc1-c1ccc2c(c1)CCCC2NC(=O)O[C@@H]1CN2CCC1CC2` (stereo partly drawn) [Example 29, (S)-quinuclidin-3-yl (6-(2-(2-methoxyethoxy)phenyl)-1,2,3,4-tetrahydronaphthalen-1-yl)carbamate], the IC50 was found to be 8.52 nM in assay [1] and 156 nM in assay [2] (Homo sapiens, Jurkat, 72 h).

Take `COCOc1ccccc1-c1ccc2c(c1)CCCC2NC(=O)O[C@@H]1CN2CCC1CC2` (stereo partly drawn) [Example 30, (S)-quinuclidin-3-yl (6-(2-(methoxymethoxy)phenyl)-1,2,3,4-tetrahydronaphthalen-1-yl)carbamate]: the IC50 in assay [1] was determined as 7.93 nM; in assay [2] (Homo sapiens, Jurkat, 72 h) it was 71.4 nM.

In the case of `CCc1ccc(-c2ccc3c(c2)CCCC3NC(=O)O[C@@H]2CN3CCC2CC3)cc1` (stereo partly drawn) [Example 31, (S)-quinuclidin-3-yl (6-(4-ethylphenyl)-1,2,3,4-tetrahydronaphthalen-1-yl)carbamate], the half-inhibitory concentration (IC50) came to 6.58 nM in assay [1] and 2.92 nM in assay [2] (Homo sapiens, Jurkat, 72 h).

As to `CCCc1ccc(-c2ccc3c(c2)CCCC3NC(=O)O[C@@H]2CN3CCC2CC3)cc1` (stereo partly drawn) [Example 32, (S)-quinuclidin-3-yl (6-(4-propylphenyl)-1,2,3,4-tetrahydronaphthalen-1-yl)carbamate], the half-inhibitory concentration (IC50) in assay [1] turned out to be 8.31 nM; in assay [2] (Homo sapiens, Jurkat, 72 h), 475 nM.

Regarding `CCCCc1ccc(-c2ccc3c(c2)CCCC3NC(=O)O[C@@H]2CN3CCC2CC3)cc1` (stereo partly drawn) [Example 33, (S)-quinuclidin-3-yl (6-(4-butylphenyl)-1,2,3,4-tetrahydronaphthalen-1-yl)carbamate], the half-maximal inhibitory concentration (IC50) is 3.95 nM in assay [1] and 499 nM in assay [2] (Homo sapiens, Jurkat, 72 h).

Turning to `CC(C)c1ccc(-c2ccc3c(c2)CCCC3NC(=O)O[C@@H]2CN3CCC2CC3)cc1` (stereo partly drawn) [Example 34, (S)-quinuclidin-3-yl (6-(4-isopropylphenyl)-1,2,3,4-tetrahydronaphthalen-1-yl)carbamate], the IC50 worked out at 6.1 nM in assay [1] and 298 nM in assay [2] (Homo sapiens, Jurkat, 72 h).

Turning to `CC(C)Cc1ccc(-c2ccc3c(c2)CCCC3NC(=O)O[C@@H]2CN3CCC2CC3)cc1` (stereo partly drawn) [Example 35, (S)-quinuclidin-3-yl (6-(4-isobutylphenyl)-1,2,3,4-tetrahydronaphthalen-1-yl)carbamate], the IC50 in assay [1] was determined as 9.16 nM; in assay [2] (Homo sapiens, Jurkat, 72 h), 265 nM.

Turning to `CC(C)(C)c1ccc(-c2ccc3c(c2)CCCC3NC(=O)O[C@@H]2CN3CCC2CC3)cc1` (stereo partly drawn) [Example 36, (S)-quinuclidin-3-yl (6-(4-(tert-butyl)phenyl)-1,2,3,4-tetrahydronaphthalen-1-yl)carbamate], the IC50 in assay [1] is 22.4 nM; in assay [2] (Homo sapiens, Jurkat, 72 h), 339 nM.

Regarding `O=C(NC1CCCc2cc(-c3ccc(C4CC4)cc3)ccc21)O[C@H]1CN2CCC1CC2` (stereo partly drawn) [Example 37, (S)-quinuclidin-3-yl (6-(4-cyclopropyl)-1,2,3,4-tetrahydronaphthalen-1-yl)carbamate], the results for the IC50 in assay [1] and in assay [2] (read-out: IC50) were 5.07 nM and 286 nM, respectively.

On to `CCc1cccc(-c2ccc3c(c2)CCCC3NC(=O)O[C@@H]2CN3CCC2CC3)c1` (stereo partly drawn) [Example 38, (S)-quinuclidin-3-yl (6-(3-ethylphenyl)-1,2,3,4-tetrahydronaphthalen-1-yl)carbamate], for which the half-maximal inhibitory concentration (IC50) in assay [1] came to 1.7 nM; in assay [2] (Homo sapiens, Jurkat, 72 h) it was 316 nM.

Turning to `CC(C)(C)c1cccc(-c2ccc3c(c2)CCCC3NC(=O)O[C@@H]2CN3CCC2CC3)c1` (stereo partly drawn) [Example 39, (S)-quinuclidin-3-yl (6-(3-(tert-butyl)phenyl)-1,2,3,4-tetrahydronaphthalen-1-yl)carbamate], the 50% inhibitory concentration (IC50) in assay [1] worked out at 2.88 nM; in assay [2] (Homo sapiens, Jurkat, 72 h), 849 nM.

Regarding `CC(C)c1cccc(-c2ccc3c(c2)CCCC3NC(=O)O[C@@H]2CN3CCC2CC3)c1` (stereo partly drawn) [Example 40, (S)-quinuclidin-3-yl (6-(3-isopropylphenyl)-1,2,3,4-tetrahydronaphthalen-1-yl)carbamate], the IC50 stood at 1.77 nM in assay [1] and 218 nM in assay [2] (Homo sapiens, Jurkat, 72 h).

For the molecule `CCc1ccccc1-c1ccc2c(c1)CCCC2NC(=O)O[C@@H]1CN2CCC1CC2` (stereo partly drawn) [Example 41, (S)-quinuclidin-3-yl (6-(2-ethylphenyl)-1,2,3,4-tetrahydronaphthalen-1-yl)carbamate], the IC50 in assay [1] stood at 9.08 nM; in assay [2] (Homo sapiens, Jurkat, 72 h), 292 nM.

For `O=C(NC1CCCc2cc(-c3ccc4c(c3)OC(F)(F)O4)ccc21)O[C@@H]1CN2CCC1CC2` (stereo partly drawn) [Example 42, (S)-quinuclidin-3-yl (6-(2,2-difluorobenzo[d][1,3]dioxol-5-yl)-1,2,3,4-tetrahydronaphthalen-1-yl)carbamate], the IC50 was found to be 6.71 nM in assay [1] and 210 nM in assay [2] (Homo sapiens, Jurkat, 72 h).

As for `O=C(NC1CCCc2cc(-c3ccc4c(c3)OCCO4)ccc21)O[C@@H]1CN2CCC1CC2` (stereo partly drawn) [Example 43, (S)-quinuclidin-3-yl (6-(2,3-dihydrobenzo[b][1,4]dioxin-6-yl)-1,2,3,4-tetrahydronaphthalen-1-yl)carbamate], the IC50 in assay [1] worked out at 6.06 nM; in assay [2] (Homo sapiens, Jurkat, 72 h), 616 nM.

Consider `O=C(NC1CCCc2cc(-c3ccc4c(c3)OCC4)ccc21)O[C@@H]1CN2CCC1CC2` (stereo partly drawn) [Example 44, (S)-quinuclidin-3-yl (6-(2,3-dihydrobenzofuran-6-yl)-1,2,3,4-tetrahydronaphthalen-1-yl)carbamate], for which the IC50 in assay [1] worked out at 7.59 nM; in assay [2] (Homo sapiens, Jurkat, 72 h) it was 480 nM.

For `O=C(NC1CCCc2cc(-c3ccc(N4CCOCC4)cc3)ccc21)O[C@@H]1CN2CCC1CC2` (stereo partly drawn) [Example 45, (S)-quinuclidin-3-yl (6-(4-morpholinophenyl)-1,2,3,4-tetrahydronaphthalen-1-yl)carbamate], the IC50 was 21.3 nM in assay [1] and 152 nM in assay [2] (Homo sapiens, Jurkat, 72 h).

Consider `COc1ccc(-c2ccc3c(c2)CCCC3NC(=O)O[C@@H]2CN3CCC2CC3)cc1` (stereo partly drawn) [Example 46, (S)-quinuclidin-3-yl (6-(4-methoxyphenyl)-1,2,3,4-tetrahydronaphthalen-1-yl)carbamate], for which the IC50 is 13 nM in assay [1] and 216 nM in assay [2] (Homo sapiens, Jurkat, 72 h).

For `COc1cccc(-c2ccc3c(c2)CCCC3NC(=O)O[C@@H]2CN3CCC2CC3)c1` (stereo partly drawn) [Example 47, (S)-quinuclidin-3-yl (6-(3-methoxyphenyl)-1,2,3,4-tetrahydronaphthalen-1-yl)carbamate], the IC50 was 2.52 nM in assay [1] and 433 nM in assay [2] (Homo sapiens, Jurkat, 72 h).

As for `COc1ccccc1-c1ccc2c(c1)CCCC2NC(=O)O[C@@H]1CN2CCC1CC2` (stereo partly drawn) [Example 48, (S)-quinuclidin-3-yl (6-(2-methoxyphenyl)-1,2,3,4-tetrahydronaphthalen-1-yl)carbamate], the 50% inhibitory concentration (IC50) was 3.02 nM in assay [1] and 362 nM in assay [2] (Homo sapiens, Jurkat, 72 h).

As to `O=C(NC1CCCc2cc(-c3ccncc3F)ccc21)O[C@@H]1CN2CCC1CC2` (stereo partly drawn) [Example 49, (S)-quinuclidin-3-yl (6-(3-fluoropyridin-4-yl)-1,2,3,4-tetrahydronaphthalen-1-yl)carbamate], the half-inhibitory concentration (IC50) in assay [1] was 35 nM; in assay [2] (Homo sapiens, Jurkat, 72 h), 412 nM.

On to `Cc1cc(-c2ccc3c(c2)CCCC3NC(=O)O[C@@H]2CN3CCC2CC3)ccn1` (stereo partly drawn) [Example 50, (S)-quinuclidin-3-yl (6-(2-methylpyridin-4-yl)-1,2,3,4-tetrahydronaphthalen-1-yl)carbamate], for which the half-inhibitory concentration (IC50) was 33.5 nM in assay [1] and 2190 nM in assay [2] (Homo sapiens, Jurkat, 72 h).

As for `COc1cc(-c2ccc3c(c2)CCCC3NC(=O)O[C@@H]2CN3CCC2CC3)ccn1` (stereo partly drawn) [Example 51, (S)-quinuclidin-3-yl (6-(2-methoxypyridin-4-yl)-1,2,3,4-tetrahydronaphthalen-1-yl)carbamate], the IC50 in assay [1] came to 9.42 nM; in assay [2] (Homo sapiens, Jurkat, 72 h) it was 426 nM.

With `O=C(NC1CCCc2cc(-c3cnc4[nH]ccc4c3)ccc21)O[C@@H]1CN2CCC1CC2` (stereo partly drawn) [Example 52, (S)-quinuclidin-3-yl (6-(1H-pyrrolo[2,3-b]pyridin-5-yl)-1,2,3,4-tetrahydronaphthalen-1-yl)carbamate], the 50% inhibitory concentration (IC50) turned out to be 31.8 nM in assay [1] and 22.7 nM in assay [2] (Homo sapiens, Jurkat, 72 h).

With `O=C(NC1CCCc2cc(-c3cncnc3)ccc21)O[C@@H]1CN2CCC1CC2` (stereo partly drawn) [Example 53, (S)-quinuclidin-3-yl (6-(pyrimidin-5-yl)-1,2,3,4-tetrahydronaphthalen-1-yl)carbamate], the IC50 amounted to 86.4 nM in assay [1] and 314 nM in assay [2] (Homo sapiens, Jurkat, 72 h).

As for `O=C(NC1CCCc2cc(-c3ccnc4[nH]ccc34)ccc21)O[C@@H]1CN2CCC1CC2` (stereo partly drawn) [Example 54, (S)-quinuclidin-3-yl (6-(1H-pyrrolo[2,3-b]pyridin-4-yl)-1,2,3,4-tetrahydronaphthalen-1-yl)carbamate], the IC50 was found to be 61.8 nM in assay [1] and 216 nM in assay [2] (Homo sapiens, Jurkat, 72 h).

As to `O=C(NC1CCCc2ccc(-c3ccc(F)cc3)cc21)O[C@@H]1CN2CCC1CC2` (stereo partly drawn) [Example 55, (S)-quinuclidin-3-yl (7-(4-fluorophenyl)-1,2,3,4-tetrahydronaphthalen-1-yl)carbamate], the half-maximal inhibitory concentration (IC50) turned out to be 34.1 nM in assay [1] and 110 nM in assay [2] (Homo sapiens, Jurkat, 72 h).

Consider `Cc1ccc(-c2ccc3c(c2)C(NC(=O)O[C@@H]2CN4CCC2CC4)CCC3)cc1` (stereo partly drawn) [Example 57, (S)-quinuclidin-3-yl (7-(p-tolyl)-1,2,3,4-tetrahydronaphthalen-1-yl)carbamate], for which the half-inhibitory concentration (IC50) in assay [1] stood at 23.4 nM; in assay [2] (Homo sapiens, Jurkat, 72 h), 81.2 nM.
